From US20160374944A1, “COMPOSITIONS AND METHODS FOR TREATING AND PREVENTING CANCER BY TARGETING AND INHIBITING CANCER STEM CELLS” (priority 2011, published 2016)

Legend:
Pancreatic CSCs [1] = assay: Matrigel invasion assay; format: cell-based, human
Procedure: (A and B) Pancreatic CSCs were treated with rottlerin (0-1 μM) for 24 h. The expression of Zeb-1 and Slug was measured by the qRT-PCR and normalized to GAPDH. […] (C) In vitro Matrigel invasion assay. CSCs were plated onto the Matrigel-coated membrane in the top chamber of the transwell and treated with rottlerin (0-2 μM) for 48 h. Cells invaded to the lower chamber were fixed with methanol, stained with crystal violet and photo micrographed.
(A) Pancreatic CSCs were treated with EGCG (0-60 μM) for 48 h. At the end of incubation period, the expression of Snail, ZEB1 and Slug was measured by q-RT-PCR. […] (B) Transwell migration assay. Pancreatic CSCs were plated in the top chamber of the transwell and treated with EGCG (0-60 μM) for 24 h. Cells migrated to the lower chambered were fixed with methanol, stained with crystal violet and counted. […] (C) Matrigel invasion assay. CSCs were plated onto the Matrigel-coated membrane in the top chamber of the transwell and treated with EGCG (0-60 μM) for 48 h. Cells invaded to the lower chambered were fixed with methanol, stained with crystal violet and counted. […] (D) Effects of EGCG on TCF-1/LEF activity. Pancreatic CSCs were transduced with TCF/LEF responsive GFP/firefly luciferase viral particles (pGreen Fire1-Gli with EF1, System Biosciences). Transduced CSCs were treated with EGCG (0-60) for 48 h and the GFP fluorescence was measured.
FIG. 42A and FIG. 42B show graphs showing quercetin synergizes with EGCG to inhibit self-renewal capacity, invasion, migration, and TCF/LEF and Gli transcriptional activities in pancreatic CSCs. (A) Effects of EGCG and quercetin on spheroid and colony formation. Upper Panel, uercetin synergizes with EGCG to inhibit spheroid's cell viability. CSCs were seeded in suspension and treated with EGCG (0-60 μM) with or without quercetin (20 μM) for 7 days. At the end of incubation period, all the spheroids were collected and resuspended. Cell viability was measured by trypan blue assay. […] Lower panel, uercetin synergizes with EGCG to inhibit colony formation. Pancreatic CSCs were seeded in soft agar and treated with various doses of EGCG (0-60 μM) with or without quercetin (20 μM) and incubated at […] for 21 days. At the end of incubation period, colonies were counted. […] (B) Effects of EGCG and quercetin on invasion and migration. Upper panel, Matrigel invasion assay. […] Cells invaded to the lower chambered were fixed with methanol, stained with crystal violet and counted. […] Cells migrated to the lower chambered were fixed with methanol, stained with crystal violet and counted. […] Apoptosis was measured by TUNEL assay. […] Transduced CSCs were treated with EGCG (40 μM) with or without quercetin (20 μM) for 48 hrs and the luciferase activity was measured.

Brain CSCs = assay: cell viability, trypan blue, Vi-CELL analyzer; format: cell-based; settings: 48 h
Procedure: Brain CSCs were treated with resveratrol (0-20 μM), curcumin (0-20 μM), honokiol (0-20 μM) and diallyl trisulphide (0-10 μM) for 3 days, and cell viability was measured by staining with trypan blue using Vi-CELL analyzer (Beckman Counter).
Brain CSCs were treated with sulforaphane (0-20 μM), rottlerin (0-1 μM), EGCG (0-40 μM) and embelin (0-5 μM) for 48 h, and cell viability was measured by staining with trypan blue using Vi-CELL analyzer (Beckman Counter).
Brain CSCs were treated with resveratrol (0-20 μM), curcumin (0-20 μM) honokiol (0-20 μM), and diallyl trisulphide (0-10 μM) for 3 days and cell viability was measured by staining with trypan blue using Vi-CELL analyzer. The results of those studies are illustrated in FIG. 23.
Brain CSCs were treated with sulforaphane (0-20 μM), rottlerin (0-1 μM), EGCG (0-40 μM), and embelin (0-5 μM) for 48 hours and cell viability was measured by staining with trypan blue using Vi-CELL analyzer. The results of those studies are illustrated in FIG. 24.

Pancreatic CSCs [2] = assay: colony formation in soft agar; format: cell-based, human; settings: 21 days
Procedure: (A) Pancreatic CSCs were seeded in suspension and treated with EGCG (0-60 μM) for 7 days. Pictures of spheroids formed in suspension were taken by a microscope. (B) Pancreatic CSCs were seeded in suspension and treated with EGCG (0-60 μM) for 7 days. At the end of incubation period, spheroids were collected, and dissociated with Accutase (Innovative Cell Technologies, Inc.). For secondary spheroids, cells were reseeded and treated with EGCG (0-60 μM) for 7 days. Cell viability was measured by trypan blue assay. […] Pancreatic CSCs were seeded in soft agar and treated with various doses of EGCG and incubated at […] for 21 days. At the end of incubation period, colonies were counted.
(A) Effects of EGCG and quercetin on spheroid and colony formation. […] CSCs were seeded in suspension and treated with EGCG (0-60 μM) with or without quercetin (20 μM) for 7 days. At the end of incubation period, all the spheroids were collected and resuspended. Cell viability was measured by trypan blue assay. […] Pancreatic CSCs were seeded in soft agar and treated with various doses of EGCG (0-60 μM) with or without quercetin (20 μM) and incubated at […] for 21 days. At the end of incubation period, colonies were counted. […] (B) Effects of EGCG and quercetin on invasion and migration. Upper panel, Matrigel invasion assay. CSCs were plated onto the Matrigel-coated membrane in the top chamber of the transwell and treated with EGCG (0-60 μM) with or without quercetin (20 μM) for 48 hrs. Cells invaded to the lower chambered were fixed with methanol, stained with crystal violet and counted. […] Lower panel, Transwell migration assay. Pancreatic CSCs were plated in the top chamber of the transwell and treated with EGCG (0-60 μM) with or without quercetin (20 μM) for 48 hrs. Cells migrated to the lower chambered were fixed with methanol, stained with crystal violet and counted. […] CSCs were seeded in suspension and treated with EGCG (0-60 μM) with or without quercetin (20 μM) for 7 days. At the end of incubation period, all the spheroids were collected.
At the end of incubation period, all the spheroids were collected and resuspended. Cell viability was measured by trypan blue assay. […] At the end of incubation period, colonies were counted.

[3] = EGCG 0-60 μM with or without quercetin 20 μM, 48 hrs
[4] = EGCG 0-60 μM with or without quercetin 20 μM

Compound	invasion (Pancreatic CSCs [1]; [3])	invasion (Pancreatic CSCs [1]; EGCG 0-60 μM, 48 h)	cell viability (Brain CSCs)	colony formation (Pancreatic CSCs [2]; [4])	growth of colonies (Pancreatic CSCs [2]; EGCG)	colony formation (Pancreatic CSCs [2]; SFN with or without quercetin)	in vitro invasion (Pancreatic CSCs [1]; rottlerin 0-2 μM, 48 h, Matrigel)
O=C(O[C@@H]1Cc2c(O)cc(O)cc2O[C@@H]1c1cc(O)c(O)c(O)c1)c1cc(O)c(O)c(O)c1 [EGCG, epigallocatechin gallate]	inhibited cell viability in spheroids, colony formation, migration and invasion by CSCs in a dose-dependent manner	inhibited	inhibit cell viability	inhibited cell viability in spheroids, colony formation, migration and invasion by CSCs in a dose-dependent manner	inhibited the growth of colonies in a dose-dependent manner		
O=c1c(O)c(-c2ccc(O)c(O)c2)oc2cc(O)cc(O)c12 [quercetin]	effective alone			effective alone		effective alone	
CC(=O)c1c(O)c(C)c(O)c(Cc2c(O)c3c(c(C(=O)/C=C/c4ccccc4)c2O)OC(C)(C)C=C3)c1O [rottlerin]			inhibit cell viability				inhibited the in vitro invasion
C[S+]([O-])CCCCN=C=S (stereo not drawn) [sulforaphane]			inhibit cell viability			inhibited the cell viability and colony formation of pancreatic CSCs in a dose-dependent manner	
